Assay results published in US20110251238A1, “PPAR AGONIST COMPOSITIONS AND METHODS OF USE” (BIOPHARMED, priority 2008, published 2011).
≈ marks a conversion by molar mass, not a printed value. Read-outs that look alike come from different tables or passages of the source.

Experiments:
[1] = system: KB3 (epitheloid lung cancer) cell lines; test: Cell growth inhibition (cytotoxicity), MTS assay, KB3 cell line; assay type: cell-based; details: MTS assay, triplicate, read-out: KB3 IC50
Procedure: Cell growth inhibition was determined by the MTS assay; the number of viable cells were proportional to the extent of formazan production in the presence or absence of drugs. […]

[2] = system: A549 (human lung adenocarcinoma epithelial); test: Growth inhibition, MTT colorimetric assay, A549; assay type: cell-based; details: carcinoma, 3 days with drug, means of six values, unit inferred, read-out: IC50 A549
Procedure: (§1) A549 (human lung adenocarcinoma epithelial), BxPC3 (pancreatic cancer), LoVo (colon cancer), MCF-7 (epithelial breast cancer), PC3 (human prostate cancer), Hs683 (human glioma), T98G (glioblastoma), U373 (human glioblastoma-astrocytoma), U138 MG (human glioma), epithelial-like), SKMEL28 (human melanoma), B16-F10 (mouse melanoma) and RhTP (rhabdomyosarcoma) cell lines were cultured in presence of the drugs for 3 days. The cytotoxic activity is expressed as (IC50). Inhibition of cell proliferation measured by the MTT colorimetric assay. The values reported in Table 4 are means of six distinct values.

[3] = system: BxPC3 (pancreatic cancer); test: Growth inhibition, MTT colorimetric assay, BxPC3; assay type: cell-based, human; details: carcinoma, 3 days with drug, means of six values, unit inferred, read-out: IC50 BxPC3
Procedure: Cells are cultured at 37° C. in Falcon culture dishes, incubated at 5% CO2 in a suitable culture medium available from Invitrogen Corp. Anti-proliferative activity is determined by an MTT assay (bromide of (3-[4,5-dimethylthiazolium-yl]diphenyltetrazolium)). According to one standard protocol, absorbance is measured at 570 nm (see Dumont et al. (2007) Neoplasia 9: 766-776.
as §1

LoVo (colon cancer) = test: Growth inhibition, MTT colorimetric assay, LoVo; assay type: cell-based; details: carcinoma, 3 days with drug, means of six values, unit inferred, read-out: IC50 LoVo
Procedure: as §1

[4] = system: MCF-7 (epithelial breast cancer); test: Growth inhibition, MTT colorimetric assay, MCF7; assay type: cell-based; details: carcinoma, 3 days with drug, means of six values, unit inferred, read-out: IC50 MCF7
Procedure: as §1

[5] = system: PC3 (human prostate cancer); test: Growth inhibition, MTT colorimetric assay, PC3; assay type: cell-based; details: carcinoma, 3 days with drug, means of six values, unit inferred, read-out: IC50 PC3
Procedure: as §1, with “Compounds that met the criteria for activity on KB3 cells were further tested for drug growth inhibitory activity in 5 carcinoma, 6 glioma and 3 melanoma cell lines, shown in Table 4. A549” for “A549”, “values. The standard errors are <5% as compared to the mean values.” for “values.”

Hs683 (human glioma) = test: Growth inhibition, MTT colorimetric assay, HS683; assay type: cell-based; details: glioma, 3 days with drug, means of six values, unit inferred, read-out: IC50 HS683
Procedure: as §1

T98G (glioblastoma) = test: cells; assay type: cell-based; details: glioma, 3 days with drug, means of six values, unit inferred, read-out: IC50 T98G
Procedure: as §1

[6] = system: U373 (human glioblastoma-astrocytoma); test: Growth inhibition, MTT colorimetric assay, U373; assay type: cell-based; details: glioma, 3 days with drug, means of six values, unit inferred, read-out: IC50 U373
Procedure: as §1, with “Compounds that met the criteria for activity on KB3 cells were further tested for drug growth inhibitory activity in 5 carcinoma, 6 glioma and 3 melanoma cell lines, shown in Table 4. A549” for “A549”, “values. The standard errors are <5% as compared to the mean values.” for “values.”

U138 MG (human glioma) = test: Growth inhibition, MTT colorimetric assay, U138; assay type: cell-based; details: glioma, 3 days with drug, means of six values, unit inferred, read-out: IC50 U138
Procedure: as §1, with “Compounds that met the criteria for activity on KB3 cells were further tested for drug growth inhibitory activity in 5 carcinoma, 6 glioma and 3 melanoma cell lines, shown in Table 4. A549” for “A549”, “values. The standard errors are <5% as compared to the mean values.” for “values.”

GL19 = test: Growth inhibition, MTT colorimetric assay, GL19; assay type: cell-based; details: 3 days with drug, means of six values, unit inferred, read-out: IC50 GL19
Procedure: as §1, with “Compounds that met the criteria for activity on KB3 cells were further tested for drug growth inhibitory activity in 5 carcinoma, 6 glioma and 3 melanoma cell lines, shown in Table 4. A549” for “A549”, “values. The standard errors are <5% as compared to the mean values.” for “values.”

RhTP (rhabdomyosarcoma) = test: Growth inhibition, MTT colorimetric assay, RhTp; assay type: cell-based; details: 3 days with drug, means of six values, unit inferred, read-out: IC50 RhTp
Procedure: as §1, with “Compounds that met the criteria for activity on KB3 cells were further tested for drug growth inhibitory activity in 5 carcinoma, 6 glioma and 3 melanoma cell lines, shown in Table 4. A549” for “A549”, “values. The standard errors are <5% as compared to the mean values.” for “values.”

KaKa = test: Growth inhibition, MTT colorimetric assay, KaKa; assay type: cell-based; details: 3 days with drug, means of six values, unit inferred, read-out: IC50 KaKa
Procedure: as §1, with “Compounds that met the criteria for activity on KB3 cells were further tested for drug growth inhibitory activity in 5 carcinoma, 6 glioma and 3 melanoma cell lines, shown in Table 4. A549” for “A549”, “values. The standard errors are <5% as compared to the mean values.” for “values.”

Host = test: Growth inhibition, MTT colorimetric assay, Host; assay type: cell-based; details: 3 days with drug, means of six values, unit inferred, read-out: IC50 Host
Procedure: as §1, with “Compounds that met the criteria for activity on KB3 cells were further tested for drug growth inhibitory activity in 5 carcinoma, 6 glioma and 3 melanoma cell lines, shown in Table 4. A549” for “A549”, “values. The standard errors are <5% as compared to the mean values.” for “values.”

SKMEL28 (human melanoma) = test: Growth inhibition, MTT colorimetric assay, SKMEL-28; assay type: cell-based; details: melanoma, 3 days with drug, means of six values, unit inferred, read-out: IC50 SKMEL-28
Procedure: as §1, with “Compounds that met the criteria for activity on KB3 cells were further tested for drug growth inhibitory activity in 5 carcinoma, 6 glioma and 3 melanoma cell lines, shown in Table 4. A549” for “A549”, “values. The standard errors are <5% as compared to the mean values.” for “values.”

B16-F10 (mouse melanoma) = test: Growth inhibition, MTT colorimetric assay, B16F10; assay type: cell-based; details: melanoma, 3 days with drug, means of six values, unit inferred, read-out: IC50 B16F10
Procedure: as §1, with “Compounds that met the criteria for activity on KB3 cells were further tested for drug growth inhibitory activity in 5 carcinoma, 6 glioma and 3 melanoma cell lines, shown in Table 4. A549” for “A549”, “values. The standard errors are <5% as compared to the mean values.” for “values.”

[7] = system: bloodstream forms of T. brucei and T. congolense; test: Trypanocidal activity in vitro, Alamar Blue assay; assay type: cell-based, Trypanosoma brucei and T. congolense; details: 48 h total incubation; for GI50: 50% growth inhibition, read-out: GI50; for MIC: lowest concentration at which all cells were killed, read-out: MIC
From the text: Trypanosoma brucei and T. congolense are the causative agents of sleeping sickness in humans and nagana in cattle, respectively. The protozoan parasites live extracellularlyin blood and tissue fluids of mammals and are transmitted by the bite of infected tsetse flies (Glossina spp.). Here the trypanocidal activity against bloodstream forms of T. brucei and T. congolense of bis-8-hydroxy quinoline N-substituted benzylamines derivatives was investigated in vitro, according to methods described in. Steverding et al. (2006) Kinetoplastid Biology and Disease, 5(3): 1-5; Hongmance et al., (2007) Antimicrob. Agents Chemother. 51:1105-1106; and Zhao et al., (2005) Bio-org. Med. Chem.; 13: 3921-3926. Cells were seeded into 96-well tissue culture plates in 200 μl medium containing various concentrations of analogues dissolved in H2O. The controls contained the respective solvent alone. […] After 24 h (trypanosomes) or 43 h (HL-60) incubation, 20 μl of the colorimetric viability indicator Alamar Blue® was added to each well. The cells were incubated for a further 24 h (trypanosomes) or 5 h (HL-60) so that the total incubation time was 48 h. Then, the plates were read on a Dynatech MR5000ELISA reader (Denkendorf, Germany),using a test wavelength of 550 nm and a reference wave length of 630 nm. Each test was set up in duplicate and repeated three times. For comparison, the general cytotoxicity of the compounds was assayed with human myeloid leukaemia HL-60 cells. The anti-trypanosomal activities and the general cytotoxicities of the new analogues were evaluated using the Alamar Blue® assay.

| Structure (SMILES) | IC50 ([1]; KB3, Table 3A) [nM] | IC50 ([2]; Homo sapiens, A549, 72 h) [nM] | IC50 ([3]; Homo sapiens, BXPC-3, 72 h) [nM] | IC50 (LoVo (colon cancer); Homo sapiens, LoVo, 72 h) [nM] | IC50 ([4]; Homo sapiens, MCF7, 72 h) [nM] | IC50 ([5]; Homo sapiens, 72 h) [nM] | IC50 (Hs683 (human glioma); Homo sapiens, Hs 683, 72 h) [nM] | IC50 (T98G (glioblastoma); Homo sapiens, T98G, 72 h) [nM] | IC50 ([6]; Homo sapiens, U373 MG, 72 h) [nM] | IC50 (U138 MG (human glioma); Homo sapiens, U138-MG, 72 h) [nM] | IC50 (GL19; GL19, 72 h) [nM] | IC50 (RhTP (rhabdomyosarcoma); 72 h) [nM] | IC50 (KaKa; 72 h) [nM] | IC50 (Host; 72 h) [nM] | IC50 (SKMEL28 (human melanoma); Homo sapiens, SK-MEL-28, 72 h) [nM] | IC50 (B16-F10 (mouse melanoma); Mus musculus, B16-F10, 72 h) [nM] | GI50 [7] [nM] | MIC [7] [µM] | IC50 ([1]; KB3, Table 3B) [nM] | melting point [°C] | other results |
| --- | --- | --- | --- | --- | --- | --- | --- | --- | --- | --- | --- | --- | --- | --- | --- | --- | --- | --- | --- | --- | --- |
| Oc1ccc(CN(Cc2ccccc2)Cc2ccc(O)c3ncccc23)c2cccnc12 [BPM18,725, 5,5′-(benzylazanediyl)bis(methylene)diquinolin-8-ol] | 20 | 54 | 7440 | 91 | 97 | 258 | 76 | 249 | 357 | 95 | 3450 | 97 | 2430 | 2160 | > 10000 | 765 | 300 ± 10 | 1 (≈ 0.422 µg/mL) | – | – | – |
| CC(C)(C)OC(=O)N(Cc1cccc(C(F)(F)F)c1)Cc1ccc(O)c2ncccc12 [BPM19,132, Tert-butyl-(8-hydroxyquinolin-5-yl)methyl(3-(trifluoromethyl)benzyl)carbamate] | – | – | – | – | – | – | – | – | – | – | – | – | – | – | – | – | – | – | 1000 | 114 to 116 | – |
| Oc1ccc(CN(Cc2ccccc2C(F)(F)F)Cc2ccc(O)c3ncccc23)c2cccnc12 [BPM19,178, 5,5-(2-(Trifluoromethyl)benzylazanediyl)bis(methylene)diquinolin-8-ol] | – | – | – | – | – | – | – | – | – | – | – | – | – | – | – | – | 330 ± 10 | 1 (≈ 0.489 µg/mL) | – | – | IC50 ([1]; Table 3A): 100 nM; IC50 [2]: 46 nM; IC50 [3]: 274 nM; IC50 (LoVo (colon cancer)): 93 nM; IC50 [4]: 88 nM; IC50 [5]: 179 nM; IC50 (Hs683 (human glioma)): 64 nM; IC50 (T98G (glioblastoma)): 210 nM; IC50 [6]: 78 nM; IC50 (U138 MG (human glioma)): 80 nM; IC50 (GL19): 472 nM; IC50 (RhTP (rhabdomyosarcoma)): 87 nM; IC50 (KaKa): 887 nM; IC50 (Host): 912 nM; IC50 (SKMEL28 (human melanoma)): 6380 nM; IC50 (B16-F10 (mouse melanoma)): 98 nM |
| Oc1ccc(CN(Cc2cccc(C(F)(F)F)c2)Cc2ccc(O)c3ncccc23)c2cccnc12 [BPM19,189, 5,5′-(3-(trifluoromethyl)benzylazanediyl)bis(methylene)diquinolin-8-ol] | 2200 | 38 | 167 | 94 | 30 | 37 | 36 | 57 | 65 | 47 | 674 | 69 | 6470 | 679 | > 10000 | 89 | 310 ± 10 | 1 (≈ 0.489 µg/mL) | – | – | – |
| CC(C)(C)OC(=O)N(Cc1cc(C(F)(F)F)cc(C(F)(F)F)c1)Cc1ccc(O)c2ncccc12 [BPM19,190, Tert-butyl-3,5-bis(trifluoromethyl)benzyl((8-hydroxyquinolin-5-yl)methyl)carbamate] | – | – | – | – | – | – | – | – | – | – | – | – | – | – | – | – | – | – | 1000 | 149 to 152 | – |
| Oc1ccc(CN(Cc2ccc(O)c3ncccc23)Cc2ccc(O)c3ncccc23)c2cccnc12 [BPM19,218, 5,5′,5″-nitrilotris(methylene)triquinolin-8-ol] | – | – | – | – | – | – | – | – | – | – | – | – | – | – | – | – | 450 ± 100 | 1 (≈ 0.489 µg/mL) | > 10000 | 175 to 178 | – |
